# PMC5218480 (PLoS ONE, 2017)
# Tested on: MV-4-11 cells
# Test: Gene expression microarray analysis (Affymetrix PrimeView) and GSEA
# Type: cell-based, human
# Parameters: RFU PODN (11730768_x_at) / Fold change /veh PODN (11730768_x_at) / RFU LINC00158 (11744669_a_at) / Fold change /veh LINC00158 (11744669_a_at) / RFU DUSP10 (11751237_a_at) / Fold change /veh DUSP10 (11751237_a_at) / RFU ID3 (11757404_x_at) / Fold change /veh ID3 (11757404_x_at) / RFU PLEKHG5 (11737974_s_at) / Fold change /veh PLEKHG5 (11737974_s_at) / RFU LRRC4B (11730491_at) / Fold change /veh LRRC4B (11730491_at) / RFU GIMAP4 (11747438_a_at) / Fold change /veh GIMAP4 (11747438_a_at) / RFU KRT8 (11758183_x_at) / Fold change /veh KRT8 (11758183_x_at) / RFU CNN1 (11734310_a_at) / Fold change /veh CNN1 (11734310_a_at) / RFU VPS37D (11726825_at) / Fold change /veh VPS37D (11726825_at) / RFU C10orf10 (11716522_x_at) / Fold change /veh C10orf10 (11716522_x_at) / RFU KIR2DL2 /// KIR2DL4 /// KIR2DL5A /// KIR2DL5B /// KIR2DS1 /// KIR2DS2 /// KIR2DS3 /// KIR2DS4 /// KIR3DL3 /// KIR3DL3 /// KIR3DS1 (11738374_at) / Fold change /veh KIR2DL2 /// KIR2DL4 /// KIR2DL5A /// KIR2DL5B /// KIR2DS1 /// KIR2DS2 /// KIR2DS3 /// KIR2DS4 /// KIR3DL3 /// KIR3DL3 /// KIR3DS1 (11738374_at) / RFU C1QL1 (11718748_at) / Fold change /veh C1QL1 (11718748_at) / RFU TMPRSS4 (11747572_a_at) / Fold change /veh TMPRSS4 (11747572_a_at) / RFU HAMP (11756126_x_at) / Fold change /veh HAMP (11756126_x_at) / RFU RNFT2 (11725882_a_at) / Fold change /veh RNFT2 (11725882_a_at) / RFU NR4A2 (11747474_a_at) / Fold change /veh NR4A2 (11747474_a_at) / RFU ABCC12 (11746883_a_at) / Fold change /veh ABCC12 (11746883_a_at) / RFU TMEM136 (11760407_x_at) / Fold change /veh TMEM136 (11760407_x_at) / RFU CLDN22 /// WWC2 (11732394_at) / Fold change /veh CLDN22 /// WWC2 (11732394_at) / RFU HLA-DPB1 (11760878_x_at) / Fold change /veh HLA-DPB1 (11760878_x_at) / RFU SPINT1 (11716480_a_at) / Fold change /veh SPINT1 (11716480_a_at) / RFU GAP43 (11754022_s_at) / Fold change /veh GAP43 (11754022_s_at) / RFU A4GNT (11735810_at) / Fold change /veh A4GNT (11735810_at) / RFU PRB3 (11715151_x_at) / Fold change /veh PRB3 (11715151_x_at) / RFU TUBB4B (11761932_at) / Fold change /veh TUBB4B (11761932_at) / RFU CAPN14 (11732068_a_at) / Fold change /veh CAPN14 (11732068_a_at) / RFU TMCC2 (11721928_a_at) / Fold change /veh TMCC2 (11721928_a_at) / RFU IRGQ (11745062_a_at) / Fold change /veh IRGQ (11745062_a_at) / RFU FAM174B (11720279_a_at) / Fold change /veh FAM174B (11720279_a_at) / RFU TMPRSS4 (11748680_a_at) / Fold change /veh TMPRSS4 (11748680_a_at) / RFU FAM212B (11763350_a_at) / Fold change /veh FAM212B (11763350_a_at) / RFU PLEKHG5 (11743358_a_at) / Fold change /veh PLEKHG5 (11743358_a_at) / RFU ZSCAN30 (11745921_a_at) / Fold change /veh ZSCAN30 (11745921_a_at) / RFU CMKLR1 (11741424_a_at) / Fold change /veh CMKLR1 (11741424_a_at) / RFU LOC101060620 /// MAPK8IP1 (11723275_at) / Fold change /veh LOC101060620 /// MAPK8IP1 (11723275_at) / RFU SPTSSB (11747773_x_at) / Fold change /veh SPTSSB (11747773_x_at) / RFU PRSS12 (11739890_at) / Fold change /veh PRSS12 (11739890_at) / RFU BIN1 (11741810_x_at) / Fold change /veh BIN1 (11741810_x_at) / RFU WNT11 (11732464_a_at) / Fold change /veh WNT11 (11732464_a_at) / RFU C10orf10 (11716521_a_at) / Fold change /veh C10orf10 (11716521_a_at) / RFU C5orf56 (11738089_at) / Fold change /veh C5orf56 (11738089_at) / RFU CYB561 (11721691_x_at) / Fold change /veh CYB561 (11721691_x_at) / RFU ANKRD19P (11752326_a_at) / Fold change /veh ANKRD19P (11752326_a_at) / RFU OR2T12 /// OR2T33 /// OR2T8 (11738714_s_at) / Fold change /veh OR2T12 /// OR2T33 /// OR2T8 (11738714_s_at) / RFU VCAN (11748164_a_at) / Fold change /veh VCAN (11748164_a_at) / RFU JSRP1 (11732532_at) / Fold change /veh JSRP1 (11732532_at) / RFU KRTAP10-11 (11738290_x_at) / Fold change /veh KRTAP10-11 (11738290_x_at) / RFU MYO3A (11730013_a_at) / Fold change /veh MYO3A (11730013_a_at) / RFU EBF3 (11725865_a_at) / Fold change /veh EBF3 (11725865_a_at) / RFU CAMK2N1 (11719241_x_at) / Fold change /veh CAMK2N1 (11719241_x_at) / RFU C5orf56 (11738088_a_at) / Fold change /veh C5orf56 (11738088_a_at) / RFU OLFML3 (11715873_a_at) / Fold change /veh OLFML3 (11715873_a_at) / RFU LOC100653217 /// NTM (11731650_a_at) / Fold change /veh LOC100653217 /// NTM (11731650_a_at) / RFU MAPK11 (11762145_a_at) / Fold change /veh MAPK11 (11762145_a_at) / RFU FIZ1 (11724087_x_at) / Fold change /veh FIZ1 (11724087_x_at) / RFU OASL (11726364_x_at) / Fold change /veh OASL (11726364_x_at) / RFU SOX15 (11748057_x_at) / Fold change /veh SOX15 (11748057_x_at) / RFU CD79A (11719716_a_at) / Fold change /veh CD79A (11719716_a_at) / RFU HIST1H1D (11736915_at) / Fold change /veh HIST1H1D (11736915_at) / RFU CASKIN2 (11723855_a_at) / Fold change /veh CASKIN2 (11723855_a_at) / RFU LOC730098 (11760151_x_at) / Fold change /veh LOC730098 (11760151_x_at) / RFU OR4N2 (11742367_at) / Fold change /veh OR4N2 (11742367_at) / RFU PRRT2 (11749266_a_at) / Fold change /veh PRRT2 (11749266_a_at) / RFU SNX32 (11753110_a_at) / Fold change /veh SNX32 (11753110_a_at) / RFU CDHR5 (11726645_a_at) / Fold change /veh CDHR5 (11726645_a_at) / RFU RCAN1 (11760418_a_at) / Fold change /veh RCAN1 (11760418_a_at) / RFU FAM167A (11723789_a_at) / Fold change /veh FAM167A (11723789_a_at) / RFU FAM26E (11764081_at) / Fold change /veh FAM26E (11764081_at) / RFU ISYNA1 (11749810_s_at) / Fold change /veh ISYNA1 (11749810_s_at) / RFU ACY1 (11761880_at) / Fold change /veh ACY1 (11761880_at) / RFU 11764098_at / Fold change /veh 11764098_at / RFU SAMD14 (11745864_x_at) / Fold change /veh SAMD14 (11745864_x_at) / RFU NPB (11741838_a_at) / Fold change /veh NPB (11741838_a_at) / RFU TMPRSS6 (11731388_a_at) / Fold change /veh TMPRSS6 (11731388_a_at) / RFU KRTAP10-2 (11738614_at) / Fold change /veh KRTAP10-2 (11738614_at) / RFU ARHGAP8 /// PRR5-ARHGAP8 (11727945_x_at) / Fold change /veh ARHGAP8 /// PRR5-ARHGAP8 (11727945_x_at) / RFU KRTAP5-7 /// NADSYN1 (11734609_at) / Fold change /veh KRTAP5-7 /// NADSYN1 (11734609_at) / RFU RASL12 (11751679_a_at) / Fold change /veh RASL12 (11751679_a_at) / RFU CDKN2B (11736163_a_at) / Fold change /veh CDKN2B (11736163_a_at) / RFU PRF1 (11729649_at) / Fold change /veh PRF1 (11729649_at) / RFU, ZNF638 /// ZNF638-IT1 / Fold change vs veh, ZNF638 /// ZNF638-IT1 / RFU, PANK3 / Fold change vs veh, PANK3 / RFU, SH3YL1 / Fold change vs veh, SH3YL1 / RFU, ZEB2 / Fold change vs veh, ZEB2 / RFU, NRIP1 / Fold change vs veh, NRIP1 / RFU, PTTG1IP / Fold change vs veh, PTTG1IP / RFU, CAPN2 / Fold change vs veh, CAPN2 / RFU, MED14 / Fold change vs veh, MED14 / RFU, SNORA58 / Fold change vs veh, SNORA58 / RFU, C1orf63 / Fold change vs veh, C1orf63 / RFU, LRRFIP1 / Fold change vs veh, LRRFIP1 / RFU, NDUFAF7 / Fold change vs veh, NDUFAF7 / RFU, SLC12A2 / Fold change vs veh, SLC12A2 / RFU, IBTK / Fold change vs veh, IBTK / RFU, ESF1 / Fold change vs veh, ESF1 / Fold change vs veh, TMEM50B / RFU, TAOK1 / Fold change vs veh, TAOK1 / RFU, ACBD3 / Fold change vs veh, ACBD3 / RFU, TMA16 / Fold change vs veh, TMA16 / RFU, RWDD3 / Fold change vs veh, RWDD3 / RFU, BCAT1 / Fold change vs veh, BCAT1 / RFU, EDEM3 / Fold change vs veh, EDEM3 / RFU, TMEM33 / Fold change vs veh, TMEM33 / RFU, WDR75 / Fold change vs veh, WDR75 / RFU, AHCTF1 / Fold change vs veh, AHCTF1 / RFU, TFRC / Fold change vs veh, TFRC / RFU, ZDHHC17 / Fold change vs veh, ZDHHC17 / RFU, NOM1 / Fold change vs veh, NOM1 / RFU, ARL8B / Fold change vs veh, ARL8B / RFU, ZBTB11 / Fold change vs veh, ZBTB11 / RFU, TAMM41 / Fold change vs veh, TAMM41 / RFU, KIAA1704 /// LOC100996395 / Fold change vs veh, KIAA1704 /// LOC100996395 / RFU, ING1 / Fold change vs veh, ING1 / RFU, TRMT61B / Fold change vs veh, TRMT61B / RFU, FUBP3 / Fold change vs veh, FUBP3 / RFU, TP53 / Fold change vs veh, TP53 / RFU, TNKS2 / Fold change vs veh, TNKS2 / RFU, ZFP14 / Fold change vs veh, ZFP14 / RFU, ACTR2 / Fold change vs veh, ACTR2 / RFU, PPP3R1 / Fold change vs veh, PPP3R1 / RFU, PIK3R1 / Fold change vs veh, PIK3R1 / RFU, HNRNPA1 / Fold change vs veh, HNRNPA1 / RFU, RNF170 / Fold change vs veh, RNF170 / RFU, ZNF28 / Fold change vs veh, ZNF28 / RFU, RNGTT / Fold change vs veh, RNGTT / RFU, OGT / Fold change vs veh, OGT / RFU, BRD1 / Fold change vs veh, BRD1 / RFU, MARS / Fold change vs veh, MARS / RFU, ZNF655 / Fold change vs veh, ZNF655 / RFU, FAHD1 / Fold change vs veh, FAHD1 / RFU, BDP1 / Fold change vs veh, BDP1 / RFU, LRRCC1 / Fold change vs veh, LRRCC1 / RFU, ARID1A / Fold change vs veh, ARID1A / RFU, ZNF146 / Fold change vs veh, ZNF146 / RFU, ZNF330 / Fold change vs veh, ZNF330 / RFU, GPN3 / Fold change vs veh, GPN3 / RFU, C9orf123 / Fold change vs veh, C9orf123 / RFU, N4BP2L2 / Fold change vs veh, N4BP2L2 / RFU, ARFIP1 / Fold change vs veh, ARFIP1 / RFU, FAM179B / Fold change vs veh, FAM179B / RFU, BCL10 / Fold change vs veh, BCL10 / RFU, UHRF1BP1L / Fold change vs veh, UHRF1BP1L / RFU, BET1 / Fold change vs veh, BET1 / RFU, CNOT2 / Fold change vs veh, CNOT2 / RFU, ZNF268 / Fold change vs veh, ZNF268 / Fold change vs veh, ZNF507 / RFU, DGCR2 / Fold change vs veh, DGCR2 / RFU, WDSUB1 / Fold change vs veh, WDSUB1 / Fold change vs veh, HSP90B1 /// MIR3652 / RFU, ADSS / Fold change vs veh, ADSS / RFU, GK / Fold change vs veh, GK / RFU, ZNF148 / Fold change vs veh, ZNF148 / RFU, TAF9 / Fold change vs veh, TAF9 / RFU, SLC1A5 / Fold change vs veh, SLC1A5 / RFU, SLMO2 / Fold change vs veh, SLMO2 / RFU, ABCC4 / Fold change vs veh, ABCC4 / RFU, LOC101060439 /// RAP1B / Fold change vs veh, LOC101060439 /// RAP1B / RFU, RFX7 / Fold change vs veh, RFX7 / RFU, GTPBP10 / Fold change vs veh, GTPBP10 / RFU, CNEP1R1 / Fold change vs veh, CNEP1R1 / RFU, BIVM-ERCC5 /// ERCC5 / Fold change vs veh, BIVM-ERCC5 /// ERCC5 / RFU, ILF3 / Fold change vs veh, ILF3 / RFU 11762660_at / Fold change /veh 11762660_at / RFU VCAN (11757783_s_at) / Fold change /veh VCAN (11757783_s_at) / RFU DDX43 (11728927_at) / Fold change /veh DDX43 (11728927_at) / RFU KRT8 (11758188_x_at) / Fold change /veh KRT8 (11758188_x_at) / RFU NKD1 (11759106_at) / Fold change /veh NKD1 (11759106_at) / RFU SRD5A1 (11742802_a_at) / Fold change /veh SRD5A1 (11742802_a_at) / RFU TPSAB1 /// TPSB2 (11721975_s_at) / Fold change /veh TPSAB1 /// TPSB2 (11721975_s_at) / RFU GSTM3 (11746129_a_at) / Fold change /veh GSTM3 (11746129_a_at) / RFU IL23R (11737362_x_at) / Fold change /veh IL23R (11737362_x_at) / RFU TMEM51 (11727254_a_at) / Fold change /veh TMEM51 (11727254_a_at) / RFU PIWIL2 (11732686_x_at) / Fold change /veh PIWIL2 (11732686_x_at) / RFU ORM1 (11744905_x_at) / Fold change /veh ORM1 (11744905_x_at) / RFU CCDC152 (11743942_at) / Fold change /veh CCDC152 (11743942_at) / RFU ECM1 (11717891_a_at) / Fold change /veh ECM1 (11717891_a_at) / RFU IL23R (11748794_a_at) / Fold change /veh IL23R (11748794_a_at) / RFU TNFAIP8L3 (11732012_x_at) / Fold change /veh TNFAIP8L3 (11732012_x_at) / RFU MBOAT4 (11741988_at) / Fold change /veh MBOAT4 (11741988_at) / RFU 11764193_at / Fold change /veh 11764193_at / RFU TMEM53 (11763286_at) / Fold change /veh TMEM53 (11763286_at) / RFU MAGEB2 (11727129_at) / Fold change /veh MAGEB2 (11727129_at) / RFU TMEM200A (11744735_a_at) / Fold change /veh TMEM200A (11744735_a_at) / RFU CCDC152 (11751479_a_at) / Fold change /veh CCDC152 (11751479_a_at) / RFU FAM211A (11726209_a_at) / Fold change /veh FAM211A (11726209_a_at) / RFU RGS16 (11746705_a_at) / Fold change /veh RGS16 (11746705_a_at) / RFU VCAN (11755009_s_at) / Fold change /veh VCAN (11755009_s_at) / RFU RHOB (11743442_s_at) / Fold change /veh RHOB (11743442_s_at) / RFU RGS16 (11720943_a_at) / Fold change /veh RGS16 (11720943_a_at) / RFU RGS16 (11720944_at) / Fold change /veh RGS16 (11720944_at) / RFU, VPS4B / Fold change vs veh, VPS4B / RFU, CREB1 / Fold change vs veh, CREB1 / RFU, DNAJC13 / Fold change vs veh, DNAJC13 / RFU, GNAQ / Fold change vs veh, GNAQ / RFU, CDK5R1 / Fold change vs veh, CDK5R1 / RFU, ZRANB3 / Fold change vs veh, ZRANB3 / RFU, CUL4A / Fold change vs veh, CUL4A / RFU, CCNY / Fold change vs veh, CCNY / RFU, UFL1 / Fold change vs veh, UFL1 / RFU, COG3 / Fold change vs veh, COG3 / RFU, DIAPH2 / Fold change vs veh, DIAPH2 / RFU, SKA2 / Fold change vs veh, SKA2 / RFU, AFF3 / Fold change vs veh, AFF3 / RFU, LMF1 / Fold change vs veh, LMF1 / RFU, IPO11 / Fold change vs veh, IPO11 / RFU, DFFB / Fold change vs veh, DFFB / RFU, FOXP1 / Fold change vs veh, FOXP1 / RFU, CARD8 / Fold change vs veh, CARD8 / RFU, STRN3 / Fold change vs veh, STRN3 / RFU, ADK / Fold change vs veh, ADK / RFU, RASSF2 / Fold change vs veh, RASSF2 / RFU, WIPF1 / Fold change vs veh, WIPF1 / RFU, LARP1B / Fold change vs veh, LARP1B / RFU, RASA1 / Fold change vs veh, RASA1 / RFU, RB1 / Fold change vs veh, RB1 / RFU, PPFIA1 / Fold change vs veh, PPFIA1 / RFU, MAT2A / Fold change vs veh, MAT2A / RFU, CCT5 / Fold change vs veh, CCT5 / RFU, WDR92 / Fold change vs veh, WDR92 / RFU, CUX1 / Fold change vs veh, CUX1 / RFU, TTC7A / Fold change vs veh, TTC7A / RFU, TMEM135 / Fold change vs veh, TMEM135 / RFU, DEPTOR / Fold change vs veh, DEPTOR / RFU, CPM / Fold change vs veh, CPM / RFU, DNAJB6 / Fold change vs veh, DNAJB6 / RFU, CACNA2D3 / Fold change vs veh, CACNA2D3 / RFU, DTX4 / Fold change vs veh, DTX4 / RFU, TFCP2 / Fold change vs veh, TFCP2 / RFU, GMCL1 /// GMCL1P1 / Fold change vs veh, GMCL1 /// GMCL1P1 / RFU, AEBP2 / Fold change vs veh, AEBP2 / RFU, SNHG1 /// SNORD22 /// SNORD25 /// SNORD26 /// SNORD27 /// SNORD28 /// SNORD29 /// SNORD31 / Fold change vs veh, SNHG1 /// SNORD22 /// SNORD25 /// SNORD26 /// SNORD27 /// SNORD28 /// SNORD29 /// SNORD31 / Fold change (Aza/veh), C12orf56 (ProbeSet 11735607_a_at) / Fold change (ACY-1035/veh), C12orf56 (ProbeSet 11735607_a_at) / Fold change (Aza/veh), FGFR1OP (ProbeSet 11751329_s_at) / Fold change (ACY-1035/veh), FGFR1OP (ProbeSet 11751329_s_at) / Fold change (Aza/veh), VPS36 (ProbeSet 11739960_a_at) / Fold change (ACY-1035/veh), VPS36 (ProbeSet 11739960_a_at) / RFU SYPL1 (11715823_x_at) / Fold change /veh SYPL1 (11715823_x_at) / RFU IGFBP7 (11715501_s_at) / Fold change /veh IGFBP7 (11715501_s_at) / RFU REEP3 (11722064_at) / Fold change /veh REEP3 (11722064_at) / RFU IGLL1 (11728026_x_at) / Fold change /veh IGLL1 (11728026_x_at): dose or concentration left out as unconfirmed
# Settings: ProbeSet 11758170_s_at; LIST D
structure (smiles),measurement,value
Nc1ncn([C@@H]2O[C@H](CO)[C@@H](O)[C@H]2O)c(=O)n1 [azacitidine],"RFU, DIAPH2",23.40 RFU
